Paper PMC9780888, “4-Isobutylmethcathinone—A Novel Synthetic Cathinone with High In Vitro Cytotoxicity and Strong Receptor Binding Preference of Enantiomers” (Pharmaceuticals, 2022)

Columns and labels:
Format in all cases: cell-based
[1] = target: T1, HTR2A (5-hydroxytryptamine receptor 2A) (Homo sapiens, UniProt P28223); test: PRESTO-Tango β-arrestin 2 recruitment assay, HTR2A; details: 0-500 nM
T1 construct: Tango construct (TEV cleavage site and tTA, as described for the dopamine receptor plasmids); host or cells: HTLA (HEK 293-derived)
Description: (§1) The HTLA cell line was used for the PRESTO-Tango β-arrestin recruitment assay. The HTLA cells were provided as a gift from the laboratory of Bryan Roth (Roth Lab, USA). It is a human cell line derived from human embryonic kidney cells (HEK 293) stably expressing β-arrestin in a fusion with the tobacco etch virus protease (TEV) protease and the luciferase gene under the control of the transcription factor tetracycline transcriptional activator (tTA). The HTLA cells were cultured under standard incubation conditions (37 °C, 5% CO2, 95% humidity) in DMEM with 10% FBS. […]
(§2) The transfected HTLA cells were incubated for 24 h, and then 1 × 10^4 cells were seeded per well of a white 96-well clear bottom plate (Brand, Germany) in 40 μL of DMEM with 1% charcoal-stripped FBS (Thermo Fisher Scientific, USA). […] After 5 min., the luminescence was measured using a multi-mode microplate reader SpectraMax iD5 (Molecular Devices, San Jose, CA, USA) measuring the entire wavelength spectrum. All samples were measured in quadruplicates. The data were evaluated by Prism 7 software (GraphPad, San Jose, CA, USA).
(§3) Figure S13: β-arrestin 2 recruitment PRESTO-Tango assay: activation of the serotonin receptors. […] The data were processed and evaluated by GraphPad Prism Software using one-way […]

[2] = target: T2, HTR2B (5-hydroxytryptamine receptor 2B) (Homo sapiens, UniProt P41595); test: PRESTO-Tango β-arrestin 2 recruitment assay, HTR2B; details: 0-500 nM
T2 construct: Tango construct (TEV cleavage site and tTA, as described for the dopamine receptor plasmids); host or cells: HTLA (HEK 293-derived)
Description: as §1, §2, §3

[3] = target: T3, ADRA2B (alpha-2B adrenergic receptor) (Homo sapiens, UniProt P18089); test: PRESTO-Tango β-arrestin 2 recruitment assay, ADRA2B; details: 500 nM
T3 construct: Tango construct (TEV cleavage site and tTA, as described for the dopamine receptor plasmids); host or cells: HTLA (HEK 293-derived)
Description: as §1
as §2, with “CA, USA). […]” for “CA, USA).”
(§4) The error bar represents standard deviation from four replicates. The data were processed and evaluated by GraphPad Prism Software using one-way ANOVA: * p<0.05; ** p<0.01; *** […]

[4] = target: T4, ADRB1 (beta-1 adrenergic receptor) (Homo sapiens, UniProt P08588); test: PRESTO-Tango β-arrestin 2 recruitment assay, ADRB1; details: ADRB1, 500 nM
T4 construct: Tango construct (TEV cleavage site and tTA, as described for the dopamine receptor plasmids); host or cells: HTLA (HEK 293-derived)
Description: as §1
as §2, with “CA, USA). […]” for “CA, USA).”
as §4

dopamine receptor DAR1 = target: T5, dopamine receptor DAR1 (Homo sapiens, UniProt P21728); test: PRESTO-Tango β-arrestin 2 recruitment assay, DAR1; details: HTLA cells
T5 construct: host or cells: HTLA (HEK 293-derived)
From the text: However, binding to a specific receptor/transporter and, thus, the mechanism of action of a given cathinone always depends on the specific structure of the evaluated compound [37]. In this study, the binding activity of IBMcat and its enantiomers was verified by PRESTO-Tango (parallel receptor expression and screening via transcriptional output, with transcriptional activation following arrestin-2 translocation) assay using the HTLA cell line stably producing β-arrestin-2 in a fusion with TEV and luciferase production driven by tTA. […] The transcription factor then translocates to the cell nucleus, in which it triggers the transcription of the target gene for luciferase production which can be determined by the light emitted from luciferin conversion to oxyluciferin. Here, the pronounced luminescence was recorded for all DAR1-4 types in HTLA cells treated with IBMCat and its enantiomers (Figure 8). […]
as §2, with “The data were evaluated by Prism 7 software (GraphPad, San Jose, CA, USA).” left out

T5 sequence (P21728 whole entry): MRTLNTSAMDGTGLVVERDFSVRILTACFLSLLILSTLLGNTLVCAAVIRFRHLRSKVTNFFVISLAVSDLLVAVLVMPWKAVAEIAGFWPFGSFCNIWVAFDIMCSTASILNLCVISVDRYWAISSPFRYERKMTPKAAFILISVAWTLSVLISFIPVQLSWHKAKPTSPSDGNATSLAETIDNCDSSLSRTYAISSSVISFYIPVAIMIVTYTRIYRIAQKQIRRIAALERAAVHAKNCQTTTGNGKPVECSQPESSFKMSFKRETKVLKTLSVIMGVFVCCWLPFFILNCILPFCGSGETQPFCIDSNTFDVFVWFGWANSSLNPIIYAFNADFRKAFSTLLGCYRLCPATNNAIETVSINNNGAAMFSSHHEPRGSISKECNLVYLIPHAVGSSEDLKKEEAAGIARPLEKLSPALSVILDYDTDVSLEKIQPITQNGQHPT
T1 sequence (P28223 whole entry): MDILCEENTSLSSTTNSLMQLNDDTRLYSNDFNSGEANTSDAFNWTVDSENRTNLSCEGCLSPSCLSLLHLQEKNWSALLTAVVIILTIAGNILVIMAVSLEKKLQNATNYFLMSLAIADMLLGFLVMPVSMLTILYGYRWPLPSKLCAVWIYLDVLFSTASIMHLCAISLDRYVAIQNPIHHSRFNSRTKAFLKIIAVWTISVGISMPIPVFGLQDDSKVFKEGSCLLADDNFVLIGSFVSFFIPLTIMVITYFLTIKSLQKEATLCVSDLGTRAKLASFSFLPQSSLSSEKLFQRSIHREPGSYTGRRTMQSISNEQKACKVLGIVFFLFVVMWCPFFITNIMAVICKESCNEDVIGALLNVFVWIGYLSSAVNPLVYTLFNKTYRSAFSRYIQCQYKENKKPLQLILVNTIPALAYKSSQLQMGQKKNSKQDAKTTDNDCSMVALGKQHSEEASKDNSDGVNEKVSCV
T2 sequence (P41595 whole entry): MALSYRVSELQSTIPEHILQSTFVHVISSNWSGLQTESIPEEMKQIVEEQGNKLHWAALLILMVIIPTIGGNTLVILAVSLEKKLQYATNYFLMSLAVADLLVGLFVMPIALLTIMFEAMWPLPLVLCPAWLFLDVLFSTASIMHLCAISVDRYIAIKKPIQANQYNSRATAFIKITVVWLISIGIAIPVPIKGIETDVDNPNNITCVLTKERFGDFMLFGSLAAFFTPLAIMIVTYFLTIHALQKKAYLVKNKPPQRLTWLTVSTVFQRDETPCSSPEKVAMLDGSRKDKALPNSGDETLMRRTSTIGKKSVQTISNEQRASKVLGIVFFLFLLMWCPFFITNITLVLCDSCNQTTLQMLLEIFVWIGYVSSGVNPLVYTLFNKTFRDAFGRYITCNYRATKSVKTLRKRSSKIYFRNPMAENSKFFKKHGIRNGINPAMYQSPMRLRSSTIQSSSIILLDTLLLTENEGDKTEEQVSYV
T4 sequence (P08588 whole entry): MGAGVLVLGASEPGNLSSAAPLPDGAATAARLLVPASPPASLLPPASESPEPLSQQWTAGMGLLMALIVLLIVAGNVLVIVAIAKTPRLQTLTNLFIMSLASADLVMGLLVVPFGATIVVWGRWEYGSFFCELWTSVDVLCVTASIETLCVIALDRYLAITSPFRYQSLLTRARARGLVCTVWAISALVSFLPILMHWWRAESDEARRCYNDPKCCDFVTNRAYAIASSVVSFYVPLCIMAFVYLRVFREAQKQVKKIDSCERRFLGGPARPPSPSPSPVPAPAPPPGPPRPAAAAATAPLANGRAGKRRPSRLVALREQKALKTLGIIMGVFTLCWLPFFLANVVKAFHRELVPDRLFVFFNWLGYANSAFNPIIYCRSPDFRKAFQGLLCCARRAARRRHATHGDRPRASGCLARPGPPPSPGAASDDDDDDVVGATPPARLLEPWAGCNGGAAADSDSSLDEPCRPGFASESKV
T3 sequence (P18089 whole entry): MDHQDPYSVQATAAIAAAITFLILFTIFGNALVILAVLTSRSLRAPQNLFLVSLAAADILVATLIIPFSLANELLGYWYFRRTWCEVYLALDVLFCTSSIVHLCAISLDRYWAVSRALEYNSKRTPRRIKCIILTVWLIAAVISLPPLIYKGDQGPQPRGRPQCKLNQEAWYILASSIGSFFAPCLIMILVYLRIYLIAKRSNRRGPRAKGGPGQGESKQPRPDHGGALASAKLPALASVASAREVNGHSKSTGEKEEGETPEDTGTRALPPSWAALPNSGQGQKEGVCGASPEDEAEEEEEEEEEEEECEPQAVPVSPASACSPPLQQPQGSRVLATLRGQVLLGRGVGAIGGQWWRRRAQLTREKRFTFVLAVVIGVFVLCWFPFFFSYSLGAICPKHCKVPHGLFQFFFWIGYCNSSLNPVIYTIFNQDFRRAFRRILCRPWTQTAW

Compound: CNC(C)C(=O)c1ccc(CC(C)C)cc1.Cl (stereo not drawn) [IBMcat, 4-isobutylmethcathinone hydrochloride]
- agonistic activity for HTR2A [1]: did not exhibit any agonistic activity
- agonistic activity for HTR2B [2]: did not exhibit any agonistic activity
- increase in RLU compared to untreated control [3]: 1.5 fold
- increase in the luminescence signal [4]: 3 fold
- effect on DAR1 (increase in RLU with increasing concentration) (dopamine receptor DAR1; 0-500 nM): acted as agonists
- concentration from which no further increase in RLU was detected (maximum effective concentration) (dopamine receptor DAR1; DAR1): 10 nM
